# Laboratory results as given in patent publication US6935334B2, “Enhancing therapeutic effectiveness of nitric oxide inhalation” (The General Hospital Corporation, priority 2000, dated 2005).
# Experiments:
# [1] = Lung wet/dry ratio (Example 2); assay type: in vivo, mouse; details: breathing 4 or 40 ppm NO for 22 hours
# Protocol: Lung wet/dry ratio. After euthanasia with pentobarbital (0.1 mg/g intraperitoneally), both lungs, excluding hilar structures, were excised, blotted, and immediately weighed. Thereafter, the tissue was dried in a microwave oven for 60 minutes, as described previously (20), and reweighed. Lung wet/dry ratio was calculated.
# [2] = system: isolated-perfused mouse lungs preconstricted with U46619; test: Pulmonary vasodilator response to NO inhalation in isolated, perfused and ventilated mouse lungs preconstricted with U46619; assay type: in vivo; details: for pulmonary vasodilator response to subsequent ventilation with NO after prolonged NO breathing: prolonged breathing of 20 ppm NO
# Protocol: Isolated, Perfused, and Ventilated Mouse Lung Model Mice were killed by intraperitoneal injection of pentobarbital sodium (200 mg/kg body weight) and placed in a 37° C. water-jacketed chamber (Isolated Perfused Lung Size 1 Type 839; Hugo-Sachs Elektronik, March-Hugstetten, Germany). The trachea was isolated and intubated, and the lungs were ventilated with 21% O2, 6% CO2 and 73% N2 using a volume-controlled ventilator (model 687; Harvard Apparatus, South Natick, Mass.) at a ventilatory rate of 85 breaths/min and 2 cm H2O end-expiratory pressure. The tidal volume was adjusted to provide a peak inspiratory pressure of 10 cm H2O throughout each study. The lungs were exposed via a midline sternotomy, and a ligataure was placaed around the aorticopulmonary outflow tract. After injection of 10 IU heparin into the right ventricle, the pulmonary artery was cannulated with a stainless steel cannula (1 mm ID) via the right ventricle. The pulmonary venous effluent was drained via a stainless steel cannula (1 mm ID) placed through the apex of the left ventricle across the mitral valve and into the left atrium. Left atrial pressure was maintained at 2 mmHg. Lungs were perfused at a constant flow (50 ml. kg body weight^−1. min^−1; Ismatec Reglo-Analogue roller pump; Laboratoriumstechnik GmbH, Wertheim-Mondfeld, Germany) with a non-recirculating system at 37° C. The perfusate used was Hanks' Balanced Salt Solution (GibcoBRL, Grand Island, N.Y.) containing 1.26 mM CaCl2, 5.33 mM KCl, 0.44 mM KH2PO4, 0.50 mM MgCl2, 0.41 mM MgSO4, 138.0 mM NaCl, 4.0 mM NaHCO3, 0.3 mM Na2HPO4, and 5.6 mM glucose. Bovine serum albumin, 5%, and dextran, 5% (both from Sigma Chemical Co., St. Louis, Mo.), were added to the perfusate to prevent pulmonary edema, in the isolated, perfused, and ventilated rat lung, essentially as described in Holzmann et al., 1996, Am. J. Physiol. 271:L981-L986. Indomethacin, […] (Sigma Chemical Co.), and 1 mM L-NAME (Sigma Chemical Co.) were added to the perfusate to inhibit endogenous prostaglandin and NO synthesis, respectively. Sodium bicarbonate was added to adjust the perfusate pH to 7.34-7.43.
# Pulmonary artery pressure (PAP) and left atrial pressure were measured via saline-filled membrane pressure transducers (Argon, Athens, Tex.) connected to a side port of the inflow and outflow cannulae, respectively. Airway pressure (Paw) was measured using a differential pressure transducer (model MP-45-32-871; Validyne Engineering Corp., Northridge, Calif.) connected to the inspiratory limb just before the Y piece. Pressure transducers were connected to a biomedical amplifier (Hewlett Packard 7754B, Andover, Mass.), and data were recorded at 150 Hz on a personal computer using an analog-to-digital interface with a data acquisition system (DI-220; Dataq Instruments, Akron, Ohio). The system was calibrated before each experiment.
# For NO inhalation, NO gas (800 or 80 ppm NO in nitrogen, Airco, Murray Hill, N.J.) was blended (Oxygen Blender; Bird Corporation, Palm Springs, Calif.) with oxygen, carbon dioxide, and nitrogen to achieve a final concentration of 21% O2, 6% CO2, and the desired NO concentration. NO and higher oxidative states of NO (NOx; CLD 700 AL; Eco Physics, Dürmten, Switzerland), oxygen (Hudson Ventronics Ddivision, Temecula, Calif.), and carbon dioxide (Datex CO2 monitor; Puritan-Bennett Corpration, Los Angeles, Calif.) concentrations were monitored continuously.
# Pulmonary Vascular Response to NO inhalation after Lipopolysaccharide Challenge Wild-type mice and NOS2-deficient mice were injected intraperitoneally with 50 mg/kg body weight Escherichia coli 0111:B4 lipopolysaccharide (LPS; Difco Laboratories, Detroit, Mich.) dissolved in saline 16 h before isolated lung perfusion. This time point was chosen based on previous studies in rats (Holzmann et al., 1996, Am. J. Physiol. 271:L981-L986). Untreated wild-type and NOS2-deficient mice served as controls. […]
# [3] = Wet-to-dry lung weight ratio after isolated lung perfusion (Example 1); assay type: in vivo, mouse; details: exposure to NO inhalation for 16 h
# Protocol: Wet-to-Dry Lung Weight Ratio At the end of each experiment, both lungs, excluding hilar structures, were excised and weighed (wet weight). Thereafter, the lungs were dried in a microwave oven for 60 min, as previously described (Holzmann et al., supra), and then reweighed (dry weight). Wet-to-dry lung weight ratios were calculated by dividing the wet weight by the dry weight.
structure (smiles),measurement,setting,value
"[N]=O [NO, Nitric oxide]",wet/dry lung weight ratios,[1],did not alter
same,effect of NO inhalation on PAP,"[2]; 0.4, 4 and 40 ppm NO for 5 min each, all groups",decreased the PAP in a dose-dependent manner
same,ΔPAP (change in PAP by inhaled NO as percentage of U46619-induced increase),"[2]; 0.4 ppm NO, lipopolysaccharide-pretreated NOS2-deficient mice exposed to 20 ppm ambient NO for 16 h",−24±4%
same,ΔPAP (change in PAP by inhaled NO as percentage of U46619-induced increase),"[2]; 0.4 ppm NO, untreated control NOS2-deficient mice exposed to 20 ppm ambient NO for 16 h",−42±4%
same,ΔPAP (change in PAP by inhaled NO as percentage of U46619-induced increase),"[2]; 4 ppm NO, lipopolysaccharide-pretreated NOS2-deficient mice exposed to 20 ppm ambient NO for 16 h",−39±5%
same,ΔPAP (change in PAP by inhaled NO as percentage of U46619-induced increase),"[2]; 4 ppm NO, untreated control NOS2-deficient mice exposed to 20 ppm ambient NO for 16 h",−58±4%
same,ΔPAP (change in PAP by inhaled NO as percentage of U46619-induced increase),"[2]; 40 ppm NO, lipopolysaccharide-pretreated NOS2-deficient mice exposed to 20 ppm ambient NO for 16 h",−55±3%
same,ΔPAP (change in PAP by inhaled NO as percentage of U46619-induced increase),"[2]; 40 ppm NO, untreated control NOS2-deficient mice exposed to 20 ppm ambient NO for 16 h",−62±5%
same,subsequent responsiveness to short-term inhaled NO after prolonged NO breathing,"[2]; breathing 0.2 ppm NO for 16 h after lipopolysaccharide, NOS2-deficient mice",did not cause subsequent hyporesponsiveness
same,subsequent vasodilator response to 0.4 ppm NO inhalation after prolonged NO breathing,"[2]; breathing 2 ppm NO for 16 h after lipopolysaccharide, NOS2-deficient mice, compared with control mice",decreased the vasodilator response
same,pulmonary vasodilator response to subsequent ventilation with NO after prolonged NO breathing,[2]; endotoxin-challenged NOS2-deficient mice,markedly impaired the pulmonary vasodilator response
same,pulmonary vasodilator response to subsequent ventilation with NO after prolonged NO breathing,[2]; untreated wild-type or NOS2-deficient mice,does not impair the pulmonary vasodilator response
same,wet-to-dry lung weight ratio,[3]; lipopolysaccharide-pretreated NOS2-deficient mice,5.1±0.2
same,wet-to-dry lung weight ratio,[3]; lipopolysaccharide-pretreated wild-type mice,4.9±0.1
same,wet-to-dry lung weight ratio,[3]; untreated NOS2-deficient mice,4.8±0.1
same,wet-to-dry lung weight ratio,[3]; untreated wild-type mice,4.5±0.3
